# Measured values taken from patent publication US20160000796A1, “PHARMACEUTICAL COMPOSITION FOR USE IN PREVENTION OR TREATMENT OF CANCER” (priority 2013, published 2016).
# Assays:
# [1] = tested on: HTLV-1-producing cell line, MT2; assay: Cellular proliferation test (MTS assay), MT2; format: cell-based
# Method: (§1) HTLV-1-producing cell lines, MT2 (transformant with HTLV-1, JCRB cell No: JCRB1210) and HUT102 (ATL-derived cell line, ATCC No: TIB-162), were used.
# (§2) Each nucleoside analogue reverse transcriptase inhibitor was added to the medium for cells at a final concentration of 100 μM. Cells were seeded on a 96-well plate at a concentration of 1×10^4 cells/100 μL/well and cultured for 4 hours (Day 0), 48 hours (Day 2) or 96 hours (Day 4). A medium added DMSO (solvent control) alone was used as a control. Cellular proliferation was examined by MTS assay. Specifically, after the cells were cultured for a predetermined time, a reagent for cellular proliferation test, Aqueous One Solution Cell Proliferation (trade name, manufactured by Promega), was added to the cells. Four hours later, absorbance at 490 nm was measured. The cellular proliferation was represented by a ratio relative to that of the control (solvent control) on Day 0 that was regarded as 1.
# (§3) Abacavir was added to MT2 and HUT102 used in Example 1 at a concentration of 0 μM (DMSO was added instead of abacavir), 10 μM, 25 μM, 50 μM, 75 μM or 100 μM. The cells were seeded on a 96-well plate at a concentration of 1×10^4 cells/100 μL/well and cultured for 4 hours or 48 hours. […]
# [2] = tested on: HTLV-1-producing cell line, HUT102 (derived from ATL); assay: Cellular proliferation test (MTS assay), HUT102; format: cell-based
# Method: as §1, §2, §3
# [3] = tested on: SYK-11L (+) (non-virus-producing ATL cell line); assay: Cellular proliferation (MTS assay), SYK-11L (+); format: cell-based
# Method: as §2
# This example used HTLV-1-infected cell lines (non-virus-producing ATL cell lines): ED40515 (−), ED40515 (+), and ATL43T (all were provided by Prof. Michiyuki Maeda who produced the cells); and SYK-11L (+) (prepared in the laboratory of the inventors).
# The six types of nucleoside analogue reverse transcriptase inhibitors as used in Example 1 were used and cellular proliferation was examined in the same manner as in Example 1. […]
# [4] = tested on: non-ATL cell line, Jurkat; assay: Chromosome double-strand break (Giemsa chromosome specimens), Jurkat; format: cell-based, human; conditions: 100 μM, 48 hours
# Method: Abacavir was added to an ATL cell line, ED40515 (−), at a concentration of 0 μM (DMSO was added instead of abacavir), 10 μM, 25 μM, 50 μM, 75 μM or 100 μM. After the 48 hours culture, the cells were fixed by Carnoy and stained with Giemsa to prepare chromosome specimens in accordance with conventional methods. Similarly, zidovudine was added to ED40515 (−) at a concentration of 10 μM or 100 μM, and abacavir was added to a non-ATL cell line, Jurkat, at a concentration of 100 μM, and chromosome specimens were prepared. Chromosome images (100 or more images per group) were observed by an optical microscope. The cells were determined as being positive for double-strand break (DSB) when at least one chromosome break was found.
# [5] = tested on: TDP1-knocked-down cells (Jurkat); assay: Cellular proliferation (MTS) of TDP1-knocked-down cells; format: cell-based, human; conditions: TDP1 siRNA-introduced Jurkat versus control siRNA-introduced cells; 300 μM; 48 hours
# Method: The cells were cultured for 48 hours. MTS assay was performed using a reagent for cellular proliferation test, Aqueous One Solution Cell Proliferation (trade name, manufactured by Promega), in the same manner as in Example 1.
# [6] = 100 μM, Day 0, 2, 4, compared among six NRTIs
# [7] = 10, 25, 50, 75, 100 μM, 48 hours
smiles,measurement,setting,value
"Nc1nc(NC2CC2)c2ncn([C@H]3C=C[C@@H](CO)C3)c2n1 [abacavir, (−)-(1S,4R)-4-[2-amino-6-(cyclopropylamino)-9H-purin-9-yl]-2-cyclopentene-1-methanol]",cellular proliferation (ratio relative to solvent control on Day 0),[1]; [6],most strongly suppressed
same,"cellular proliferation, dose dependence",[1]; [7],suppressed cellular proliferation of both cell lines in a dose-dependent manner
same,cellular proliferation (ratio relative to solvent control on Day 0),[2]; [6],most strongly suppressed
same,"cellular proliferation, dose dependence",[2]; [7],suppressed cellular proliferation of both cell lines in a dose-dependent manner
same,cellular proliferation,[3]; 100 μM,strong suppressive effect
same,"cellular proliferation, dose dependence","[3]; 10-100 μM, Day 0, 2, 4",suppressed cellular proliferation of all the cell lines in a dose-dependent manner
same,ratio of double-strand break-positive cells,[4],did not induce double-strand break
same,cellular proliferation relative to abacavir-non-treated cells (100%),[5],significantly lower
